# Source: patent US11452707B2, “Use of cannabidiol in preparation of drugs for resisting against influenza” (priority 2017, dated 2022)
# Like-named read-outs stand apart in the source and are kept apart here.
# Assays:
# H1N1 WSN (A/WSN/33) [1] = test: H1N1 WSN-infected mice: lung index; assay type: in vivo, influenza A virus H1N1; details: DPI 8; for lung injury index of mice caused by H1N1 WSN infection: 20 mg/kg/d i.p. from Day 4, vs high toxicity group, P<0.05
# H1N1 WSN (A/WSN/33) [2] = test: H1N1 WSN-infected mice: pulmonary vascular permeability test (Evans Blue); assay type: in vivo, influenza A virus H1N1; details: DPI 8; 20 mg/kg/d i.p. from Day 4; vs high toxicity group; Tamiflu P<0.05, CBD P<0.01
# [3] = mouse, in vivo; cited from earlier work
# [4] = tested on: H5N1 A/great black-headed gull/Qinghai/2009 (H5N1); set-up: species or system influenza A virus H5N1; details: in vivo, 20 mg/kg/day
# [5] = oral and systemic use; cited from earlier work
# IAV = tested on: IAV; set-up: species or system Influenza A Virus; details: in vivo
# H1N1 WSN (A/WSN/33) [6] = tested on: H1N1 WSN (A/WSN/33); set-up: species or system influenza A virus H1N1; details: in vivo; for activities of the infected mice / body temperature drop / body weight drop / discomfort caused by influenza / mice died / mice in group / mortality of mice caused by H1N1 WSN infection: ip, 20 mg/kg/day
# H1N1 WSN (A/WSN/33) [7] = test: H1N1 WSN-infected mice: pathological section of lung tissue (HE); assay type: in vivo, influenza A virus H1N1; details: DPI 8; 20 mg/kg/d i.p. from Day 4
# H1N1 WSN [8] = assay type: cell-based, influenza A virus H1N1; details: 24 h
# H5N1 [9] = tested on: H5N1; set-up: species or system influenza A virus H5N1; details: in vivo
# H1N1 = tested on: H1N1; set-up: species or system influenza A virus H1N1; details: in vivo
# H1N1 WSN (A/WSN/33) [10] = test: H1N1 WSN-infected mice: inflammatory cells in alveolar lavage fluid (Diff-Quick staining); assay type: in vivo, influenza A virus H1N1; details: DPI 8, 20 mg/kg/d; for number of macrophages in the alveolar lavage fluid: Tamiflu P<0.01, CBD P<0.001
# H5N1 [11] = assay type: cell-based, influenza A virus H5N1; details: 1 μM; 24 h
# H1N1 WSN [12] = assay type: cell-based, influenza A virus H1N1; details: 24 h; remark: listed apart in the source
# [13] = of the 119 deaths; cited from earlier work
smiles,measurement,setting,value
"C=C(C)[C@@H]1CCC(C)=C[C@H]1c1c(O)cc(CCCCC)cc1O [CBD, Cannabidiol]",lung injury index of mice caused by H1N1 WSN infection,H1N1 WSN (A/WSN/33) [1],significantly reduced
same,"lung index, CBD group compared with Tamiflu group",H1N1 WSN (A/WSN/33) [1]; both 20 mg/kg/d,no significant difference
same,mouse pulmonary capillary permeability caused by H1N1 WSN infection,H1N1 WSN (A/WSN/33) [2],significantly reduced
same,LPS-induced acute lung injury,[3],inhibits
same,activities of the infected mice,[4],significantly increased
same,discomfort caused by influenza,[4],significantly alleviated
same,mortality (mice died / mice in group),[4],10/10
same,mortality compared with the influenza group,[4],no significant difference
same,survival time of mice after H5N1 infection prolonged by,[4],24 h
same,body temperature drop,[4]; ip,significantly inhibited
same,body weight drop caused by H5N1,[4]; ip,Significantly Inhibited
same,severity of joint damage and the acute and chronic courses of arthritis,[5],significantly reduce
same,mortality of mice caused by IAV infection,IAV; 20 mg/kg/day,significantly inhibited
same,mortality of mice caused by IAV infection,IAV; 60 mg/kg/day,significantly inhibited
same,"mortality, CBD group compared with Tamiflu group",H1N1 WSN (A/WSN/33) [6],no significant difference
same,activities of the infected mice,H1N1 WSN (A/WSN/33) [6],significantly increased
same,body temperature drop,H1N1 WSN (A/WSN/33) [6],significantly inhibited
same,body weight drop,H1N1 WSN (A/WSN/33) [6],significantly inhibited
same,discomfort caused by influenza,H1N1 WSN (A/WSN/33) [6],significantly alleviated
same,mice died / mice in group,H1N1 WSN (A/WSN/33) [6],10/20
same,mortality of mice caused by H1N1 WSN infection,H1N1 WSN (A/WSN/33) [6],significantly reduced
same,inflammatory cell infiltration (lung pathology),H1N1 WSN (A/WSN/33) [7],significantly reduced
same,expression of PA gene in H1N1 WSN,H1N1 WSN [8]; 5 μM,significantly reduced
same,expression of PB1 gene in H1N1 WSN,H1N1 WSN [8]; 5 μM,significantly reduced
same,mortality in mice caused by IAV infection,H5N1 [9],inhibited the same mortality
same,mortality in mice caused by IAV infection,H1N1,inhibited the same mortality
same,"number of neutrophils in the alveolar lavage fluid, compared with the Tamiflu group",H1N1 WSN (A/WSN/33) [10],very significant reduction
same,"number of macrophages in the alveolar lavage fluid, compared with the Tamiflu group",H1N1 WSN (A/WSN/33) [10]; P<0.05,significant reduction
same,number of macrophages in the alveolar lavage fluid,H1N1 WSN (A/WSN/33) [10],significantly reduced
same,number of lymphocytes in the alveolar lavage fluid,"H1N1 WSN (A/WSN/33) [10]; vs IAV treatment group, P<0.01",significantly reduced
same,number of neutrophils in the alveolar lavage fluid,"H1N1 WSN (A/WSN/33) [10]; vs high toxicity treatment group, P<0.001",significantly reduced
same,expression of NP gene in H5N1,H5N1 [11],significantly reduced
same,expression of PA gene in H5N1,H5N1 [11],significantly reduced
same,expression of PB1 gene in H5N1,H5N1 [11],significantly reduced
same,expression of PB2 gene in H5N1,H5N1 [11],significantly reduced
same,expression of NP gene in H1N1 WSN,H1N1 WSN [12]; 5 μM,significantly reduced
same,expression of PA gene in H1N1 WSN,H1N1 WSN [12]; 5 μM,significantly reduced
same,expression of PB1 gene in H1N1 WSN,H1N1 WSN [12]; 5 μM,significantly reduced
same,expression of PB2 gene in H1N1 WSN,H1N1 WSN [12]; 5 μM,significantly reduced
"CCOC(=O)C1=C[C@@H](OC(CC)CC)[C@H](NC(C)=O)[C@@H](N)C1 [Tamiflu, oseltamivir, reference compound]",lung injury index of mice caused by H1N1 WSN infection,H1N1 WSN (A/WSN/33) [1],significantly reduced
same,mouse pulmonary capillary permeability caused by H1N1 WSN infection,H1N1 WSN (A/WSN/33) [2],significantly reduced
same,deaths who took Tamiflu that experienced severe illness or death within 12 hours after taking the drug,[13],38
same,mortality of mice caused by IAV infection,IAV; 20 mg/kg/day,significantly inhibited
same,activities of the infected mice,H1N1 WSN (A/WSN/33) [6],significantly increased
same,body temperature drop,H1N1 WSN (A/WSN/33) [6],significantly inhibited
same,body weight drop,H1N1 WSN (A/WSN/33) [6],significantly inhibited
same,discomfort caused by influenza,H1N1 WSN (A/WSN/33) [6],significantly alleviated
same,mice died / mice in group,H1N1 WSN (A/WSN/33) [6],9/20
same,mortality of mice caused by H1N1 WSN infection,H1N1 WSN (A/WSN/33) [6],significantly reduced
same,inflammatory cell infiltration (lung pathology),H1N1 WSN (A/WSN/33) [7],significantly reduced
same,expression of PA gene in H1N1 WSN,H1N1 WSN [8]; 10 μM,no significant inhibitory effect
same,expression of PB1 gene in H1N1 WSN,H1N1 WSN [8]; 10 μM,no significant inhibitory effect
same,number of macrophages in the alveolar lavage fluid,H1N1 WSN (A/WSN/33) [10],significantly reduced
same,expression of NP gene in H5N1,H5N1 [11],significantly reduced
same,expression of PA gene in H5N1,H5N1 [11],significantly reduced
same,expression of PB1 gene in H5N1,H5N1 [11],significantly reduced
same,expression of PB2 gene in H5N1,H5N1 [11],significantly reduced
same,expression of NP gene in H1N1 WSN,H1N1 WSN [12]; 10 μM,no significant inhibitory effect
same,expression of PA gene in H1N1 WSN,H1N1 WSN [12]; 10 μM,no significant inhibitory effect
same,expression of PB1 gene in H1N1 WSN,H1N1 WSN [12]; 10 μM,no significant inhibitory effect
same,expression of PB2 gene in H1N1 WSN,H1N1 WSN [12]; 10 μM,no significant inhibitory effect
